Source: ChEMBL document CHEMBL1201862, “PubChem BioAssay data set” (2004)
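Following 48 hours of exposure in 96-well plates, responses at five concentrations were used to interpolate endpoints linearly. At the GI50, growth is halved.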 Calls of active or inactive are those of the source. No stated cut-off is given here; in the data, active = GI50 up to about 1.1 µM and inactive = higher. Square brackets hold non-standard residues; d marks the D form. Peptide text beside a SMILES is read from it. 2Nal = N[CH](Cc1ccc2ccccc2c1)C(=O)O

What was measured:
Test in all cases: NCI anticancer screen, dose series, 48 h
SK-MEL-28 = test system: SK-MEL-28
IGROV-1 = test system: IGROV-1
HCC 2998 = test system: HCC 2998
LOX IMVI = test system: LOX IMVI
TK-10 = test system: TK-10
HCT-15 = test system: HCT-15
KM12 = test system: KM12
MCF7 = test system: MCF7
CAKI-1 = test system: CAKI-1
HT-29 = test system: HT-29
SK-MEL-2 = test system: SK-MEL-2
NCI/ADR-RES = test system: NCI/ADR-RES
HL-60 = test system: HL-60
SF-268 = test system: SF-268
OVCAR-8 = test system: OVCAR-8
OVCAR-4 = test system: OVCAR-4
A498 = test system: A498
K562 = test system: K562
OVCAR-3 = test system: OVCAR-3
SN12C = test system: SN12C

Row | SMILES | GI50 (SK-MEL-28) | GI50 (IGROV-1) | GI50 (HCC 2998) | GI50 (LOX IMVI) | GI50 (TK-10) | GI50 (HCT-15) | GI50 (KM12) | GI50 (MCF7) | GI50 (CAKI-1) | GI50 (HT-29) | GI50 (SK-MEL-2) | GI50 (NCI/ADR-RES) | GI50 (HL-60) | GI50 (SF-268) | GI50 (OVCAR-8) | GI50 (OVCAR-4) | GI50 (A498) | GI50 (K562) | GI50 (OVCAR-3) | GI50 (SN12C)
1 | C[C@]1(O)CC[C@H]2[C@@H]3CCc4cc(O)ccc4[C@H]3CC[C@@]21C | 34.8 µM (inactive) | 0.735 µM (active) | 0.233 µM (active) | 14.5 µM (inactive) | 0.826 µM (active) | 1.15 µM | 0.308 µM (active) | 0.665 µM (active) | 3.62 µM (inactive) | 6.7 µM (inactive) | 0.773 µM (active) | 1.99 µM (inactive) | 0.362 µM (active) | 3.46 µM (inactive) | 7.48 µM (inactive) | > 100 µM (inactive) | 0.456 µM (active) | – | – | –
2 | O=C(/C=C/c1ccc(O)c(O)c1)NCCc1ccc(-c2ccccc2)cc1 | 59.8 µM (inactive) | – | 54.3 µM (inactive) | – | 19.1 µM (inactive) | > 100 µM | 30.8 µM (inactive) | 32.3 µM (inactive) | 40.8 µM (inactive) | 63.5 µM (inactive) | > 100 µM (inactive) | 64.7 µM (inactive) | 28.3 µM (inactive) | 31.8 µM (inactive) | > 100 µM (inactive) | > 100 µM (inactive) | > 100 µM (inactive) | 27.2 µM (inactive) | 20.4 µM (inactive) | –
3 | O=[N+]([O-])c1ccc(NC(=S)N/N=C(\c2ccccc2)c2ccccn2)cc1 | 1.22 µM (inactive) | 1.64 µM (inactive) | 1.51 µM (inactive) | – | 1.24 µM (inactive) | 0.119 µM | 1.7 µM (inactive) | 1.43 µM (inactive) | 1.6 µM (inactive) | – | 1.76 µM (inactive) | 2.04 µM (inactive) | < 0.0129 µM (active) | 0.0491 µM (active) | 0.037 µM (active) | 1.73 µM (inactive) | 1.75 µM (inactive) | < 0.01 µM (active) | – | 1.48 µM (inactive)
4 | O=C(O)c1cc([N+](=O)[O-])cc2c(=O)c3cnccc3[nH]c12 | > 100 µM (inactive) | > 100 µM (inactive) | > 100 µM (inactive) | – | – | > 100 µM | > 100 µM (inactive) | > 100 µM (inactive) | > 100 µM (inactive) | > 100 µM (inactive) | > 100 µM (inactive) | > 100 µM (inactive) | > 100 µM (inactive) | – | > 100 µM (inactive) | > 100 µM (inactive) | > 100 µM (inactive) | > 100 µM (inactive) | > 100 µM (inactive) | > 100 µM (inactive)
5 | COc1ccc(C2c3c(n(C)c(=O)n(C)c3=O)OC(N(C)C)(N(C)C)C2(F)F)cc1 (centres undefined) | > 100 µM (inactive) | – | > 100 µM (inactive) | > 100 µM (inactive) | > 100 µM (inactive) | > 100 µM | > 100 µM (inactive) | > 100 µM (inactive) | > 100 µM (inactive) | – | > 100 µM (inactive) | > 100 µM (inactive) | – | > 100 µM (inactive) | – | > 100 µM (inactive) | > 100 µM (inactive) | 3.2 µM (inactive) | > 100 µM (inactive) | –
6 | CC1C2CC(C(S(=O)(=O)N3CCOCC3)/C2=N\O)C1(C)C (centres undefined) | > 100 µM (inactive) | > 100 µM (inactive) | > 100 µM (inactive) | > 100 µM (inactive) | > 100 µM (inactive) | > 100 µM | > 100 µM (inactive) | > 100 µM (inactive) | > 100 µM (inactive) | > 100 µM (inactive) | – | > 100 µM (inactive) | > 100 µM (inactive) | > 100 µM (inactive) | > 100 µM (inactive) | > 100 µM (inactive) | > 100 µM (inactive) | > 100 µM (inactive) | > 100 µM (inactive) | > 100 µM (inactive)
7 | COc1ccc(-c2cc(-c3ccc(Nc4ccnc5cc(Cl)ccc45)cc3)nc(N)c2C#N)cc1 | > 100 µM (inactive) | > 100 µM (inactive) | > 100 µM (inactive) | > 100 µM (inactive) | > 100 µM (inactive) | > 100 µM | > 100 µM (inactive) | > 100 µM (inactive) | > 100 µM (inactive) | – | > 100 µM (inactive) | > 100 µM (inactive) | > 100 µM (inactive) | > 100 µM (inactive) | > 100 µM (inactive) | > 100 µM (inactive) | > 100 µM (inactive) | > 100 µM (inactive) | > 100 µM (inactive) | –
8 | CSc1nc2c(ncn2C2OC(CO)C(O)C(O)C2O)c(=O)[nH]1 (centres undefined) | > 100 µM (inactive) | > 100 µM (inactive) | > 100 µM (inactive) | > 100 µM (inactive) | – | > 100 µM | > 100 µM (inactive) | > 100 µM (inactive) | – | > 100 µM (inactive) | > 100 µM (inactive) | > 100 µM (inactive) | > 100 µM (inactive) | > 100 µM (inactive) | > 100 µM (inactive) | > 100 µM (inactive) | > 100 µM (inactive) | > 100 µM (inactive) | > 100 µM (inactive) | > 100 µM (inactive)
9 | O=C(O)C1(Cc2ccc3c(c2)CCC3)Cc2ccccc2C1 | 60.8 µM (inactive) | > 100 µM (inactive) | 41.9 µM (inactive) | 87.1 µM (inactive) | > 100 µM (inactive) | 54.2 µM | 46.3 µM (inactive) | > 100 µM (inactive) | – | 88.3 µM (inactive) | > 100 µM (inactive) | 78.2 µM (inactive) | 35.2 µM (inactive) | 52.7 µM (inactive) | 63.7 µM (inactive) | 23.3 µM (inactive) | 36.1 µM (inactive) | 56.8 µM (inactive) | 71.3 µM (inactive) | > 100 µM (inactive)
10 | CC1=NN=C(N)N/C1=C/C(Sc1ccc(Cl)cc1)c1cccs1 (centres undefined) | 17.5 µM (inactive) | 11.4 µM (inactive) | 12.4 µM (inactive) | 16.7 µM (inactive) | 36.2 µM (inactive) | 6.12 µM | 11.1 µM (inactive) | 6.53 µM (inactive) | 15.7 µM (inactive) | 12.3 µM (inactive) | 13.4 µM (inactive) | 18.5 µM (inactive) | 4.07 µM (inactive) | 10.6 µM (inactive) | 16 µM (inactive) | 16.5 µM (inactive) | 16.4 µM (inactive) | 13.9 µM (inactive) | – | 26.8 µM (inactive)
11 | CN1CC[C@@]2(c3cccc(O)c3)CC(=O)/C(=C/c3ccccc3)[C@H]1C2.[O-][Cl+3]([O-])([O-])O | 11.2 µM (inactive) | 13.7 µM (inactive) | 10.4 µM (inactive) | 1.7 µM (inactive) | 15.7 µM (inactive) | 5.89 µM | 3.81 µM (inactive) | 2.64 µM (inactive) | 1.64 µM (inactive) | 3.18 µM (inactive) | 19.8 µM (inactive) | 3.85 µM (inactive) | 2.25 µM (inactive) | 4.28 µM (inactive) | 8.22 µM (inactive) | 7.94 µM (inactive) | 9.31 µM (inactive) | 2.58 µM (inactive) | – | 7.03 µM (inactive)
12 | CCc1c(Cc2cc(C)cc(C)c2)n2c(nc1=O)SCC2CBr (centres undefined) | > 50 µM (inactive) | 24.2 µM (inactive) | > 50 µM (inactive) | > 50 µM (inactive) | 34 µM (inactive) | > 50 µM | > 50 µM (inactive) | 29.4 µM (inactive) | > 50 µM (inactive) | > 50 µM (inactive) | 44.4 µM (inactive) | > 50 µM (inactive) | > 50 µM (inactive) | > 50 µM (inactive) | 10.4 µM (inactive) | 46.1 µM (inactive) | 28.7 µM (inactive) | > 50 µM (inactive) | – | > 50 µM (inactive)
13 | O=C1CC(c2ccc(Cl)cc2)Oc2ccccc21 (centres undefined) | 85.9 µM (inactive) | 14.6 µM (inactive) | 25.6 µM (inactive) | 29.8 µM (inactive) | 27.4 µM (inactive) | 17 µM | 12.9 µM (inactive) | 3.83 µM (inactive) | 26.3 µM (inactive) | 8.71 µM (inactive) | 18.8 µM (inactive) | 16.1 µM (inactive) | 10.7 µM (inactive) | 28.4 µM (inactive) | 37.2 µM (inactive) | 43.4 µM (inactive) | 26.2 µM (inactive) | 4.86 µM (inactive) | – | –
14 | Nc1ncc(Cc2ccc3c(c2)OCO3)c(N)n1 | > 100 µM (inactive) | > 100 µM (inactive) | 5.83 µM (inactive) | > 100 µM (inactive) | > 100 µM (inactive) | > 100 µM | > 100 µM (inactive) | > 100 µM (inactive) | > 100 µM (inactive) | > 100 µM (inactive) | – | > 100 µM (inactive) | 73.5 µM (inactive) | > 100 µM (inactive) | > 100 µM (inactive) | > 100 µM (inactive) | > 100 µM (inactive) | > 100 µM (inactive) | > 100 µM (inactive) | > 100 µM (inactive)
15 | CC(C)C(NC(=O)C(CCCCN)NC(=O)C(Cc1c[nH]c2ccccc12)NC(=O)C(Cc1ccc(O)cc1)NC(=O)C(CS)NC(=O)C(N)Cc1ccc2ccccc2c1)C(=O)NC(CS)C(=O)NC(C(N)=O)C(C)O (centres undefined) (H-[2Nal]CYWKVCT-NH2; configuration not given here) | > 100 µM (inactive) | > 12.5 µM (inactive) | > 12.5 µM (inactive) | > 12.5 µM (inactive) | – | > 12.5 µM | > 12.5 µM (inactive) | > 12.5 µM (inactive) | > 12.5 µM (inactive) | > 12.5 µM (inactive) | > 12.5 µM (inactive) | > 12.5 µM (inactive) | > 12.5 µM (inactive) | > 12.5 µM (inactive) | > 12.5 µM (inactive) | > 12.5 µM (inactive) | > 12.5 µM (inactive) | – | > 12.5 µM (inactive) | > 12.5 µM (inactive)
